The text below walks through data of patent US20250382273A1 (INSTITUT NATIONAL DE LA SANTE ET DE LA RECHERCHE MEDICALE, priority 2022, published 2025).

pEC50: −log10 of the molar value.

One may read the pEC50 as the EC50 on a negative log10 scale, so that one unit is a factor of ten.

One test deals with M. tuberculosis H37Rv_gfp. The class given is cell-based, Mycobacterium tuberculosis. Particulars: in combination with pretomanid 20 ng·mL−1; 5 days at 37° C.; […]; read-out: EC50 H37Rv_gfp.
For the compound `O=C1[C@@H]2[C@H](C(=O)N1c1nc3ccc(-c4ccoc4)cc3s1)[C@@H]1C=C[C@H]2C1` [Example 70, (1R,2S,6R,7S)-4-[6-(3-furyl)-1,3-benzothiazol-2-yl]-4-azatricyclo[5.2.1.02,6]dec-8-ene-3,5-dione], the pEC50 is 5.30 to 6.00. `O=C(Nc1nc2ccc(OC(F)(F)F)cc2s1)[C@@H]1C2C=CC(C2)[C@@H]1C(=O)O` (stereo partly drawn) [Example 44, 3-[[6-(trifluoromethoxy)-1,3-benzothiazol-2-yl]carbamoyl]bicyclo[2.2.1]hept-5-ene-2-carboxylic acid]: the pEC50 is greater than 6.00. Consider `O=C(Nc1nc2ccc(-c3ccc4ncccc4c3)cc2s1)[C@@H]1C2C=CC(C2)[C@@H]1C(=O)O` (stereo partly drawn) [Example 81, 3-[[6-(6-quinolyl)-1,3-benzothiazol-2-yl]carbamoyl]bicyclo[2.2.1]hept-5-ene-2-carboxylic acid], for which the pEC50 is 5.30 to 6.00. For the compound `O=C1[C@@H]2[C@H](C(=O)N1c1nc3ccc(Oc4ncccc4C(F)(F)F)cc3s1)[C@@H]1C=C[C@H]2C1` [Example 26, (1R,2S,6R,7S)-4-[6-[[3-(trifluoromethyl)-2-pyridyl]oxy]-1,3-benzothiazol-2-yl]-4-azatricyclo[5.2.1.02,6]dec-8-ene-3,5-dione], the pEC50 is 5.30 to 6.00.

Take `Cc1cc(C)c2nc(NC(=O)[C@@H]3C4C=CC(C4)[C@@H]3C(=O)O)sc2c1` (stereo partly drawn) [Example 13, 3-[(4,6-dimethyl-1,3-benzothiazol-2-yl)carbamoyl]bicyclo[2.2.1]hept-5-ene-2-carboxylic acid]: the pEC50 was greater than 6.00. As for `O=C(Nc1nc2ccc(Br)cc2s1)[C@@H]1C2C=CC(C2)[C@@H]1C(=O)O` (stereo partly drawn) [Example 47, 3-[(6-bromo-1,3-benzothiazol-2-yl)carbamoyl]bicyclo[2.2.1]hept-5-ene-2-carboxylic acid], the pEC50 was greater than 6.00.

As to `C#CCOc1ccc(-c2ccc3nc(N4C(=O)[C@@H]5[C@H](C4=O)[C@@H]4C=C[C@H]5C4)sc3c2)cc1` [Example 71, (1R,2S,6R,7S)-4-[6-(4-prop-2-ynoxyphenyl)-1,3-benzothiazol-2-yl]-4-azatricyclo[5.2.1.02,6]dec-8-ene-3,5-dione], the pEC50 was greater than 6.00. The same measure, in the same setting: then `Cc1ccc2sc(NC(=O)[C@@H]3C4C=CC(C4)[C@@H]3C(=O)O)nc2c1C` (stereo partly drawn) [Example 15, 3-[(4,5-dimethyl-1,3-benzothiazol-2-yl)carbamoyl]bicyclo[2.2.1]hept-5-ene-2-carboxylic acid], with greater than 6.00. Still for that read-out and setting: as for `O=C(Nc1nc2ccc(Oc3ccc(F)cc3)cc2s1)[C@@H]1C2C=CC(C2)[C@@H]1C(=O)O` (stereo partly drawn) [Example 21, 3-[[6-(4-fluorophenoxy)-1,3-benzothiazol-2-yl]carbamoyl]bicyclo[2.2.1]hept-5-ene-2-carboxylic acid], the figure is greater than 6.00; as for `O=C(Nc1nc2ccc(Oc3ccccc3)cc2s1)[C@@H]1C2C=CC(C2)[C@@H]1C(=O)O` (stereo partly drawn) [Example 17, 3-[(6-phenoxy-1,3-benzothiazol-2-yl)carbamoyl]bicyclo[2.2.1]hept-5-ene-2-carboxylic acid], greater than 6.00. `C#Cc1ccc2nc(N3C(=O)[C@@H]4[C@H](C3=O)[C@@H]3C=C[C@H]4C3)sc2c1` [Example 72, (1R,2S,6R,7S)-4-(6-ethynyl-1,3-benzothiazol-2-yl)-4-azatricyclo[5.2.1.02,6]dec-8-ene-3,5-dione]: the pEC50 was 5.30 to 6.00. The same measure, in the same setting: as for `CCOc1ccc2nc(N3C(=O)[C@@H]4[C@H](C3=O)[C@@H]3C=C[C@H]4C3)sc2c1` [Example 8, (1R,2S,6R,7S)-4-(6-ethoxy-1,3-benzothiazol-2-yl)-4-azatricyclo[5.2.1.02,6]dec-8-ene-3,5-dione], the figure is greater than 6.00; as for `O=C(Nc1nc2ccc(-c3ccccc3C(F)(F)F)cc2s1)[C@@H]1C2C=CC(C2)[C@@H]1C(=O)O` (stereo partly drawn) [Example 57, 3-[6-[[2-(trifluoromethyl)phenyl]-1,3-benzothiazol-2-yl]carbamoyl]bicyclo[2.2.1]hept-5-ene-2-carboxylic acid], 5.30 to 6.00.

For `O=C1[C@@H]2C3C=CC(C3)[C@@H]2C(=O)N1c1nc2ccc(Nc3cccc(F)n3)cc2s1` [Example 89, 4-[6-[(6-fluoro-2-pyridyl)amino]-1,3-benzothiazol-2-yl]-4-azatricyclo[5.2.1.02,6]dec-8-ene-3,5-dione], the pEC50 is 5.30 to 6.00. The same measure, in the same setting: then `O=C(Nc1nc2ccc(-c3cccc(C(F)(F)F)c3)cc2s1)[C@@H]1C2C=CC(C2)[C@@H]1C(=O)O` (stereo partly drawn) [Example 59, 3-[[6-[3-(trifluoromethyl)phenyl]-1,3-benzothiazol-2-yl]carbamoyl]bicyclo[2.2.1]hept-5-ene-2-carboxylic acid], with greater than 6.00; and `O=C1[C@@H]2[C@H](C(=O)N1c1nc3ccc(-c4ccsc4)cc3s1)[C@@H]1C=C[C@H]2C1` [Example 68, (1R,2S,6R,7S)-4-[6-(3-thienyl)-1,3-benzothiazol-2-yl]-4-azatricyclo[5.2.1.02,6]dec-8-ene-3,5-dione], with 5.30 to 6.00. Still for that read-out and setting: as for `O=C1[C@@H]2[C@H](C(=O)N1c1nc3ccc(OC(F)(F)F)cc3s1)[C@@H]1C=C[C@H]2C1` [Example 45, (1R,2S,6R,7S)-4-[6-(trifluoromethoxy)-1,3-benzothiazol-2-yl]-4-azatricyclo[5.2.1.02,6]dec-8-ene-3,5-dione], the figure is 5.30 to 6.00; as for `O=C(Nc1nc2ccc(Oc3ccnc(C(F)(F)F)c3)cc2s1)[C@@H]1C2C=CC(C2)[C@@H]1C(=O)O` (stereo partly drawn) [Example 32, 3-[[6-[[2-(trifluoromethyl)-4-pyridyl]oxy]-1,3-benzothiazol-2-yl]carbamoyl]bicyclo[2.2.1]hept-5-ene-2-carboxylic acid], greater than 6.00. On the same count and under the same terms, then `O=C(Nc1nc2ccc(-c3cncnc3)cc2s1)[C@@H]1C2C=CC(C2)[C@@H]1C(=O)O` (stereo partly drawn) [Example 80, 3-[(6-pyrimidin-5-yl-1,3-benzothiazol-2-yl)carbamoyl]bicyclo[2.2.1]hept-5-ene-2-carboxylic acid], with 4.70 to 5.00; and `O=C(Nc1nc2ccc(Nc3ccc(OC(F)(F)F)cn3)cc2s1)[C@@H]1C2C=CC(C2)[C@@H]1C(=O)O` (stereo partly drawn) [Example 93, 3-[[6-[[5-(trifluoromethoxy)-2-pyridyl]amino]-1,3-benzothiazol-2-yl]carbamoyl]bicyclo[2.2.1]hept-5-ene-2-carboxylic acid], with greater than 6.00. As for `O=C(Nc1nc2ccc(Nc3cccc(F)n3)cc2s1)[C@@H]1C2C=CC(C2)[C@@H]1C(=O)O` (stereo partly drawn) [Example 88, 3-[[6-[(6-fluoro-2-pyridyl)amino]-1,3-benzothiazol-2-yl]carbamoyl]bicyclo[2.2.1]hept-5-ene-2-carboxylic acid], the pEC50 was greater than 6.00. Turning to `Cc1ccnc(Oc2ccc3nc(N4C(=O)[C@@H]5C6C=CC(C6)[C@@H]5C4=O)sc3c2)c1` [Example 30], the negative-log EC50 (pEC50) was greater than 6.00. The same measure, in the same setting: then `O=C(O)C1C2C=CC(C2)[C@H]1C(=O)Nc1nc2ccc(-c3ccc(C(F)(F)F)nc3)cc2s1` (stereo partly drawn) [Example 66, 3-[[6-[6-(trifluoromethyl)-3-pyridyl]-1,3-benzothiazol-2-yl]carbamoyl]bicyclo [2.2.1]hept-5-ene-2-carboxylic acid], with greater than 6.00; and `O=C(Nc1nc2ccc(-c3ccc(C(F)(F)F)cc3)cc2s1)[C@@H]1C2C=CC(C2)[C@@H]1C(=O)O` (stereo partly drawn) [Example 60, 3-[[6-[4-(trifluoromethyl)phenyl]-1,3-benzothiazol-2-yl]carbamoyl]bicyclo[2.2.1]hept-5-ene-2-carboxylic acid], with greater than 6.00; and `O=C(Nc1nc2ccc(Oc3ccncc3)cc2s1)[C@@H]1C2C=CC(C2)[C@@H]1C(=O)O` (stereo partly drawn) [Example 24, 3-[[6-(4-pyridyloxy)-1,3-benzothiazol-2-yl]carbamoyl]bicyclo[2.2.1]hept-5-ene-2-carboxylic acid], with 5.00 to 5.30.

For `C#CCOc1cccc2sc(N3C(=O)[C@@H]4[C@H](C3=O)[C@@H]3C=C[C@H]4C3)nc12` [Example 76, (1R,2S,6R,7S)-4-(4-prop-2-ynoxy-1,3-benzothiazol-2-yl)-4-azatricyclo[5.2.1.02,6]dec-8-ene-3,5-dione], the pEC50 is 4.70 to 5.00. For the compound `O=C(Nc1nc2ccc(Nc3cc(F)ccn3)cc2s1)[C@@H]1C2C=CC(C2)[C@@H]1C(=O)O` (stereo partly drawn) [Example 85, 3-[[6-[(4-fluoro-2-pyridyl)amino]-1,3-benzothiazol-2-yl]carbamoyl]bicyclo[2.2.1]hept-5-ene-2-carboxylic acid], the pEC50 is greater than 6.00. Still for that read-out and setting: then `O=C(Nc1nc2ccc(-c3ccc(N4CCCCC4)cc3)cc2s1)[C@@H]1C2C=CC(C2)[C@@H]1C(=O)O` (stereo partly drawn) [Example 100], with greater than 6.00; and `CCc1ccc2nc(NC(=O)[C@@H]3C4C=CC(C4)[C@@H]3C(=O)O)sc2c1` (stereo partly drawn) [Example 11, 3-[(6-ethyl-1,3-benzothiazol-2-yl)carbamoyl]bicyclo[2.2.1]hept-5-ene-2-carboxylic acid], with greater than 6.00; and `O=C1[C@@H]2[C@H](C(=O)N1c1nc3ccc(-c4ccc(C(F)(F)F)cc4)cc3s1)[C@@H]1C=C[C@H]2C1` [Example 61, (1R,2S,6R,7S)-4-[6-[4-(trifluoromethyl)phenyl]-1,3-benzothiazol-2-yl]-4-azatricyclo[5.2.1.02,6]dec-8-ene-3,5-dione], with greater than 6.00. Turning to `O=C(Nc1nc2ccc(Oc3ccc(C(F)(F)F)cc3)cc2s1)[C@@H]1C2C=CC(C2)[C@@H]1C(=O)O` (stereo partly drawn) [Example 22, 3-[[6-[4-(trifluoromethyl)phenoxy]-1,3-benzothiazol-2-yl]carbamoyl]bicyclo[2.2.1]hept-5-ene-2-carboxylic acid], the pEC50 was 5.30 to 6.00. Take `O=C(Nc1nc2ccc(Cl)cc2s1)[C@@H]1C2C=CC(C2)[C@@H]1C(=O)O` (stereo partly drawn) [Example 46, 3-[(6-chloro-1,3-benzothiazol-2-yl)carbamoyl]bicyclo[2.2.1]hept-5-ene-2-carboxylic acid]: the pEC50 was 5.30 to 6.00.

Staying with this test, now noted: in combination with pretomanid, unit inferred; read-out: average EC50 H37Rv_gfp.
Regarding `O=C(Nc1nc2ccc(Oc3ccc(F)cc3)cc2s1)[C@@H]1C2C=CC(C2)[C@@H]1C(=O)O` (stereo partly drawn) [Example 21, 3-[[6-(4-fluorophenoxy)-1,3-benzothiazol-2-yl]carbamoyl]bicyclo[2.2.1]hept-5-ene-2-carboxylic acid], the pEC50 was 6.57. On the same count and under the same terms, as for `O=C(Nc1nc2ccc(Oc3ccnc(C(F)(F)F)c3)cc2s1)[C@@H]1C2C=CC(C2)[C@@H]1C(=O)O` (stereo partly drawn) [Example 32, 3-[[6-[[2-(trifluoromethyl)-4-pyridyl]oxy]-1,3-benzothiazol-2-yl]carbamoyl]bicyclo[2.2.1]hept-5-ene-2-carboxylic acid], the figure is 6.49. For the compound `O=C(Nc1nc2ccc(-c3ccc(C(F)(F)F)cc3)cc2s1)[C@@H]1C2C=CC(C2)[C@@H]1C(=O)O` (stereo partly drawn) [Example 60, 3-[[6-[4-(trifluoromethyl)phenyl]-1,3-benzothiazol-2-yl]carbamoyl]bicyclo[2.2.1]hept-5-ene-2-carboxylic acid], the pEC50 was 7.30.

The test is the same for the next values; noted with them: read-out: EC50 H37Rv_gfp.
For `O=C(Nc1nc2ccc(O)cc2s1)[C@@H]1C2C=CC(C2)[C@@H]1C(=O)O` (stereo partly drawn) [Example 50, 3-[(6-hydroxy-1,3-benzothiazol-2-yl)carbamoyl]bicyclo[2.2.1]hept-5-ene-2-carboxylic acid], the pEC50 was 4.70 to 5.00.
